# Laboratory results taken from patent US20120324604A1, “PESTICIDAL MIXTURES CONTAINING ISOXAZOLINE DERIVATIVES AND A FUNGICIDE” (priority 2010, published 2012).
# Values joined by “and” are separate entries in the source; they are usually repeats but may differ in a detail not shown here. Equal values may be shown once.
# Columns and labels:
# Type in all cases: cell-based
# Gaeumannomyces graminis = Gaeumannomyces graminis growth inhibition, microtiter plate, photometric
# Method: Mycelial fragments of the fungus from cryogenic storage were directly mixed into nutrient broth (potato dextrose broth). After placing a (DMSO) solution of the test compounds into a microliter plate (96-well format) the nutrient broth containing the fungal spores was added.
# Rhizoctonia solani = Rhizoctonia solani (Foot Rot, Damping-Off) growth inhibition, microtiter plate, photometric
# Method: Rhizoctonia solani (Foot Rot, Damping-Off):
# Mycelial fragments of the fungus from cryogenic storage were directly mixed into nutrient broth (potato dextrose broth). After placing a (DMSO) solution of the test compounds into a microtiter plate (96-well format) the nutrient broth containing the fungal spores was added.
# [1] = test system: Glomerella lagenarium (syn. Colletotrichum lagenarium); test: Glomerella lagenarium (Anthracnose of Cucurbits) growth inhibition, microtiter plate, photometric; settings: alone
# Method: Glomerella lagenarium (syn. Colletotrichum lagenarium), Anthracnose of Cucurbits:
# (§1) Conidia of the fungus from cryogenic storage were directly mixed into nutrient broth (potato dextrose broth). After placing a (DMSO) solution of the test compounds into a microtiter plate (96-well format) the nutrient broth containing the fungal spores was added.
# Pythium ultimum = Pythium ultimum (Damping Off) growth inhibition, microtiter plate, photometric
# Method: Pythium ultimum (Damping Off):
# Mycelial fragments of the fungus, prepared from a fresh liquid culture, were directly mixed into nutrient broth (potato dextrose broth). After placing a (DMSO) solution of the test compounds into a microtiter plate (96-well format) the nutrient broth containing the fungal spores was added.
# Fusarium culmorum = Fusarium culmorum (Root Rot) growth inhibition, microtiter plate, photometric
# Method: Fusarium culmorum (Root Rot):
# as §1
# Septoria tritici = Septoria tritici (Leaf Blotch) growth inhibition, microtiter plate, photometric
# Method: Septoria tritici (Leaf Blotch):
# as §1
# [2] = test system: Mycosphaerella arachidis (syn. Cercospora arachidicola); test: Mycosphaerella arachidis (Brown Leaf Spot of Groundnut) growth inhibition, microtiter plate, photometric; settings: alone
# Method: Mycosphaerella arachidis (syn. Cercospora arachidicola), Brown Leaf Spot of Groundnut (Peanut):
# as §1
# Botrvtis cinerea = Botrvtis cinerea (Gray Mould) growth inhibition, microtiter plate, photometric; settings: alone
# Method: Botrvtis cinerea (Gray Mould):
# as §1
# [3] = single compound at 0.0625 ppm AI
# [4] = single compound at 0.125 ppm AI
compound,measurement,setting,value
"CO/C=C(/C(=O)OC)c1ccccc1Oc1cc(Oc2ccccc2C#N)ncn1 [Azoxystrobin, reference compound]",AVERAGE DEAD IN %,"Gaeumannomyces graminis; applied alone, 0.00390625 ppm AI",0%
same,AVERAGE DEAD IN %,"Gaeumannomyces graminis; applied alone, 0.0078125 ppm AI",0%
same,AVERAGE DEAD IN %,"Gaeumannomyces graminis; applied alone, 0.015625 ppm AI",0%
same,AVERAGE DEAD IN %,"Gaeumannomyces graminis; applied alone, 0.03125 ppm AI",0%
same,AVERAGE DEAD IN %,"Gaeumannomyces graminis; applied alone, 0.0625 ppm AI",0%
same,AVERAGE DEAD IN %,"Gaeumannomyces graminis; applied alone, 0.125 ppm AI",20%
same,AVERAGE DEAD IN %,"Gaeumannomyces graminis; applied alone, 0.25 ppm AI",20%
same,AVERAGE DEAD IN %,"Gaeumannomyces graminis; applied alone, 0.5 ppm AI",50%
same,AVERAGE DEAD IN %,"Gaeumannomyces graminis; applied alone, 1 ppm AI",50%
same,AVERAGE DEAD IN %,"Gaeumannomyces graminis; applied alone, 2 ppm AI",50%
same,AVERAGE DEAD IN %,Gaeumannomyces graminis; single compound at 0.00390625 ppm AI,20%
same,AVERAGE DEAD IN %,Gaeumannomyces graminis; single compound at 0.015625 ppm AI,90% and 50%
same,AVERAGE DEAD IN %,Gaeumannomyces graminis; single compound at 0.03125 ppm AI,100% and 50%
same,AVERAGE DEAD IN %,Gaeumannomyces graminis; [3],50%
same,AVERAGE DEAD IN %,Gaeumannomyces graminis; [4],70%
same,AVERAGE DEAD IN %,Gaeumannomyces graminis; single compound at 0.25 ppm AI,70%
same,AVERAGE DEAD IN %,Gaeumannomyces graminis; single compound at 0.5 ppm AI,90%
same,AVERAGE DEAD IN %,Gaeumannomyces graminis; single compound at 1 ppm AI,90%
same,AVERAGE DEAD IN %,Gaeumannomyces graminis; single compound at 2 ppm AI,90%
same,AVERAGE DEAD IN %,"Rhizoctonia solani; applied alone, 0.125 ppm AI",20%
same,AVERAGE DEAD IN %,"Rhizoctonia solani; applied alone, 0.25 ppm AI",20%
same,AVERAGE DEAD IN %,"Rhizoctonia solani; applied alone, 0.5 ppm AI",20%
same,AVERAGE DEAD IN %,"Rhizoctonia solani; applied alone, 1 ppm AI",20%
same,AVERAGE DEAD IN %,"Rhizoctonia solani; applied alone, 2 ppm AI",20%
same,AVERAGE DEAD IN %,Rhizoctonia solani; [3],20%
same,AVERAGE DEAD IN %,Rhizoctonia solani; [4],20%
same,AVERAGE DEAD IN %,Rhizoctonia solani; single compound at 0.25 ppm AI,20%
same,AVERAGE DEAD IN %,Rhizoctonia solani; single compound at 0.5 ppm AI,20%
same,AVERAGE DEAD IN %,Rhizoctonia solani; single compound at 1 ppm AI,20%
same,AVERAGE DEAD IN %,Rhizoctonia solani; single compound at 2 ppm AI,20%
same,AVERAGE DEAD IN %,[1]; 0.0078125 ppm AI,0%
same,AVERAGE DEAD IN %,[1]; 0.015625 ppm AI,20%
same,AVERAGE DEAD IN %,[1]; 0.03125 ppm AI,50%
same,AVERAGE DEAD IN %,Pythium ultimum; [4],0%
same,AVERAGE DEAD IN %,"Fusarium culmorum; alone, 0.5 PPM AI",0%
same,AVERAGE DEAD IN %,"Fusarium culmorum; alone, 1 PPM AI",20%
same,AVERAGE DEAD IN %,"Fusarium culmorum; alone, 2 PPM AI",20%
same,AVERAGE DEAD IN %,"Septoria tritici; 0.015625 ppm AI, alone",20%
same,AVERAGE DEAD IN %,"Septoria tritici; 0.03125 ppm AI, alone",50%
same,AVERAGE DEAD IN %,"Septoria tritici; 0.0625 ppm AI, alone",70%
same,AVERAGE DEAD IN %,"Septoria tritici; 0.125 ppm AI, alone",90%
same,AVERAGE DEAD IN % Azoxystrobin,"Septoria tritici; Azoxystrobin alone, 0.015625 ppm AI",20%
same,AVERAGE DEAD IN % Azoxystrobin,"Septoria tritici; Azoxystrobin alone, 0.0625 ppm AI",70%
same,AVERAGE DEAD IN % Azoxystrobin,"Septoria tritici; Azoxystrobin alone, 0.125 ppm AI",90%
same,AVERAGE DEAD IN %,"Septoria tritici; alone, 0.0078125 ppm AI",0%
same,AVERAGE DEAD IN %,"Septoria tritici; alone, 0.015625 ppm AI",20%
same,AVERAGE DEAD IN %,"Septoria tritici; alone, 0.03125 ppm AI",50%
same,AVERAGE DEAD IN %,"Septoria tritici; alone, 0.0625 ppm AI",70%
same,AVERAGE DEAD IN %,"Septoria tritici; alone, 0.125 ppm AI",90%
same,AVERAGE DEAD IN %,[2]; 0.0078125 ppm AI,0%
same,AVERAGE DEAD IN %,[2]; 0.015625 ppm AI,0%
same,AVERAGE DEAD IN %,[2]; 0.0625 ppm AI,70% and 50%
same,AVERAGE DEAD IN %,[2]; 0.125 ppm AI,90%
same,AVERAGE DEAD IN %,[2]; 0.0078125 PPM AI,0%
same,AVERAGE DEAD IN %,[2]; 0.015625 PPM AI,20%
same,AVERAGE DEAD IN %,[2]; 0.03125 PPM AI,50% and 70%
same,AVERAGE DEAD IN %,[2]; 0.0625 PPM AI,90%
COC(c1ccc(Cl)cc1Cl)C(C)NC(=O)c1cn(C)nc1C(F)F (centres unmarked) [COMPOUND IV],AVERAGE DEAD IN %,Botrvtis cinerea; 0.03125 ppm AI,0%
same,AVERAGE DEAD IN %,Botrvtis cinerea; 0.0625 ppm AI,20%
same,AVERAGE DEAD IN %,Botrvtis cinerea; 0.125 ppm AI,20%
same,AVERAGE DEAD IN %,Botrvtis cinerea; 0.25 ppm AI,50%
same,AVERAGE DEAD IN %,Botrvtis cinerea; 0.5 ppm AI,70%
same,AVERAGE DEAD IN %,Botrvtis cinerea; 1 ppm AI,90%
same,AVERAGE DEAD IN %,Gaeumannomyces graminis; single compound at 0.25 ppm AI,0%
same,AVERAGE DEAD IN %,Gaeumannomyces graminis; single compound at 0.5 ppm AI,0%
same,AVERAGE DEAD IN %,Gaeumannomyces graminis; single compound at 1 ppm AI,0%
same,AVERAGE DEAD IN %,"Fusarium culmorum; alone, 1 PPM AI",20%
same,AVERAGE DEAD IN %,"Fusarium culmorum; alone, 2 PPM AI",50%
same,AVERAGE DEAD IN %,"Fusarium culmorum; single compound, 0.5 PPM AI, 48 hrs, 24° C.",0%
same,AVERAGE DEAD IN %,"Fusarium culmorum; single compound, 1 PPM AI, 48 hrs, 24° C.",20%
same,AVERAGE DEAD IN %,"Fusarium culmorum; single compound, 2 PPM AI, 48 hrs, 24° C.",50%
same,AVERAGE DEAD IN %,"Septoria tritici; 0.125 ppm AI, alone",20%
same,AVERAGE DEAD IN %,"Septoria tritici; 0.25 ppm AI, alone",90%
same,AVERAGE DEAD IN % COMPOUND IV,"Septoria tritici; COMPOUND IV alone, 0.25 ppm AI",70% and 90%
same,AVERAGE DEAD IN % COMPOUND IV,"Septoria tritici; COMPOUND IV alone, 0.5 ppm AI",90% and 100%
same,AVERAGE DEAD IN %,[2]; 0.0625 ppm AI,20%
same,AVERAGE DEAD IN %,[2]; 0.125 ppm AI,90%
same,AVERAGE DEAD IN %,[2]; 0.125 PPM AI,90%
"N#Cc1c(Cl)c(Cl)c(Cl)c(C#N)c1Cl [Chlorothalonil, reference compound]",AVERAGE DEAD IN %,Gaeumannomyces graminis; single compound at 0.25 ppm AI,0%
same,AVERAGE DEAD IN %,Gaeumannomyces graminis; single compound at 1 ppm AI,50% and 100% and 90%
same,AVERAGE DEAD IN %,Gaeumannomyces graminis; single compound at 2 ppm AI,90% and 100%
same,AVERAGE DEAD IN %,"Rhizoctonia solani; applied alone, 0.5 ppm AI",70%
same,AVERAGE DEAD IN %,"Rhizoctonia solani; applied alone, 1 ppm AI",90%
same,AVERAGE DEAD IN %,Rhizoctonia solani; single compound at 1 ppm AI,0%
same,AVERAGE DEAD IN %,Rhizoctonia solani; single compound at 2 ppm AI,0%
same,AVERAGE DEAD IN %,[1]; 0.25 ppm AI,50% and 90%
same,AVERAGE DEAD IN %,[1]; 0.5 ppm AI,70%
same,AVERAGE DEAD IN %,Pythium ultimum; single compound at 0.25 ppm AI,0%
same,AVERAGE DEAD IN %,Pythium ultimum; single compound at 0.5 ppm AI,0%
same,AVERAGE DEAD IN %,Pythium ultimum; single compound at 1 ppm AI,0%
same,AVERAGE DEAD IN %,"Fusarium culmorum; alone, 0.5 PPM AI",0%
same,AVERAGE DEAD IN %,"Septoria tritici; 0.25 ppm AI, alone",0%
same,AVERAGE DEAD IN %,"Septoria tritici; 0.5 ppm AI, alone",50%
same,AVERAGE DEAD IN % Chlorothalonil,"Septoria tritici; Chlorothalonil alone, 0.03125 ppm AI",0%
same,AVERAGE DEAD IN % Chlorothalonil,"Septoria tritici; Chlorothalonil alone, 0.0625 ppm AI",70%
same,AVERAGE DEAD IN % Chlorothalonil,"Septoria tritici; Chlorothalonil alone, 0.25 ppm AI",20%
same,AVERAGE DEAD IN %,"Septoria tritici; alone, 1 ppm AI",70%
same,AVERAGE DEAD IN %,[2]; 0.125 ppm AI,20%
same,AVERAGE DEAD IN %,[2]; 0.5 ppm AI,70%
same,AVERAGE DEAD IN %,[2]; 0.25 PPM AI,20%
same,AVERAGE DEAD IN %,[2]; 0.5 PPM AI,100% and 70%
